For orientation: IC50 means the concentration needed to halve the response being measured. In general, MIC refers to the lowest concentration found to suppress growth.

Converted amounts (≈) assume the structure as drawn. Where a name gives a salt, the structure may show the parent alone. Read-outs that look alike come from different tables or passages of the source.

The results in this text go back to paper PMC12670160, “A drug-repurposing screen of FDA- and EMA-approved drugs identifies two NF-κB inhibitors active against eumycetoma” (Journal of Antimicrobial Chemotherapy, 2025).

The subject of one data set is M. mycetomatis. The data set can be described thus: In vitro susceptibility, averages over M. mycetomatis isolates (average metabolic activity at 2 µM, mean MIC). Format: cell-based. The settings on record: Madurella mycetomatis, 96 h, 4 days at 37°C, CellTiter-Glo, average of 3 isolates, 20% or below = inhibition. The method, then: M. mycetomatis isolate MM55 was used to screen the Oncode library. This strain was kindly provided by Prof. […] The three M. mycetomatis isolates were identified by ITS sequencing and maintained at −80°C at Erasmus MC. Prior to in vitro screening, isolates were cultured on Sabouraud agar plates (BD, Erembodegem, Belgium) at 37°C.
The Oncode Drug Repurposing library was based on the drug repurposing library from the Drug Repurposing Hub of the Broad Institute and recreated by the Oncode institute.[13] […] Each well of the 384-well plates contained 0.6 µL of a 200 µM stock concentration of compound, resulting in a final concentration of 2 µM when the fungus was added. […] Furthermore, this concentration could also be reached in the G. mellonella larvae.[8],[11] The prepared 384-well plates were transferred on dry ice to the Erasmus MC and stored at −80°C until they were screened.
Each plate also contained a growth control (60 µL of M. mycetomatis hyphal suspension, plus 0.6 µL of DMSO) and a negative control (60 µL of culture medium, plus 0.6 µL of DMSO). Plates were then incubated for 4 days at 37°C, after which 30 µL of CellTiter-Glo 3D Cell Viability reagent was added to every well.[19] After 25 min of incubation at room temperature, the luminescence was measured with a CytoFluor Series 4000 luminometer (PerSeptive Biosystems, Framingham, MA, USA). To determine the metabolic activity, the following formula was used:
Percentagemetabolicactivity=(Absorbancetestluminensence−AbsorbanceNCluminensence/AbsorbanceGCluminensence−AbsorbanceNCluminensence)×100
where, GC is growth control and NC is negative control. The luminescence measured for the GC is considered as 100% metabolic activity. The luminescence for the NC is considered as 0% metabolic activity.
(ATP-based viability assays read luminescence as a measure of living cells.)

The subject of data set [1] is M. mycetomatis strain mm55. The data set can be described thus: IC50 and MIC determination, CellTiter-Glo, strain mm55. The data set is classed as cell-based, Madurella mycetomatis. The settings on record: Madurella mycetomatis; for IC50: concentration inhibiting 50% of fungal hyphae growth; for MIC: concentration with complete growth inhibition.
The test system of the next data set is M. mycetomatis strain P1. The data set can be described thus: IC50 and MIC determination, CellTiter-Glo, strain P1. The data set is classed as cell-based, Madurella mycetomatis. The settings on record: Madurella mycetomatis, P1.
The next data set concerns M. mycetomatis strain I1. The data set is described as follows: IC50 and MIC determination, CellTiter-Glo, strain I1. Format: cell-based, Madurella mycetomatis. The settings on record: Madurella mycetomatis, I1.
Data set [2] has as its system healthy uninfected G. mellonella larvae. The method, then:
(§1) For in vivo experiments, sixth-week instar G. mellonella larvae were purchased from Blue-Lagoon, Maassluis, The Netherlands. The larvae were raised and kept in the dark at room temperature. Larvae without any discoloration and weighing around 500 mg were selected for experiments.
To determine the toxicity, 15 healthy uninfected larvae were injected with 20 µL of 20 µM compound as previously described.[16] […] As a control, a separate group of larvae were injected with 20 µL of PBS. Larvae were housed in Petri dishes with Whatman paper at 37°C in the dark. Survival was monitored for 10 days.

The test system of data set [3] is M. mycetomatis MM55-infected G. mellonella larvae. The data set can be described thus: Therapeutic efficacy in M. mycetomatis-infected G. mellonella larvae (survival, log-rank). Format: in vivo, Galleria mellonella. The settings on record: 10 days. The method, then: as §1
The wet weight was determined and 10 mL of PBS per gram of mycelia was added. The suspension was then sonicated for 2 min to achieve a particle size of 10 µm. The fungal suspension (4 mg/40 µL) was injected into the last left pro-leg of a healthy G. mellonella larva with an insulin 29G U-100 needle to reach a final inoculum of 4 mg/larva. Larvae were placed in Petri dishes containing Whatman paper in a 37°C incubator.
A control group was also included in which M. mycetomatis-infected larvae were treated with PBS or with 1 mg/kg amphotericin B (Fungizone, Bristol Myers Squibb, Utrecht, The Netherlands). […] The treatment was repeated at 28 h post infection and 52 h post infection via different prolegs. The infection was monitored for 10 days.
To compare the survival rates between PBS treatment control and the different experimental groups a log-rank test was performed. All data were processed and performed in GraphPad Prism 10.

In the case of `C=CCOC(Cn1ccnc1)c1ccc(Cl)cc1Cl` (stereo not shown) [Enilconazole sulphate], the activity at 2 µM in the data set on M. mycetomatis is 1.3%. The IC50 was 1.25 µM in data set [1], 0.56 µM in the data set on M. mycetomatis strain P1 and 0.42 µM in the data set with M. mycetomatis strain I1. In addition, the MIC was found to be 2 µM in data set [1], 1 µM against M. mycetomatis strain P1 and 0.5 µM in the data set with M. mycetomatis strain I1.

In the case of `C=C1CCN([C@H](C)[C@](O)(Cn2cncn2)c2ccc(F)cc2F)CC1` [Efinaconazole], in the data set with M. mycetomatis, the activity at 2 µM came out at 0%. Besides, the values for the IC50 (in data set [1]; in the data set on M. mycetomatis strain P1; in the data set on M. mycetomatis strain I1) were 0.04 µM, under 0.03 µM and 0.05 µM, respectively. Besides, the MIC in data set [1] worked out at 0.06 µM (≈ 0.0209 µg/mL); in the data set with M. mycetomatis strain P1, 0.03 µM (≈ 0.0105 µg/mL); in the data set with M. mycetomatis strain I1 it was 0.06 µM (≈ 0.0209 µg/mL).

In the data set with M. mycetomatis, `C=C(c1ccccc1OCc1cccc(Cl)c1)n1ccnc1` [Cloconazole HCl] registered an activity at 2 µM of 1.7%. The IC50 turned out to be 0.85 µM in data set [1], 0.74 µM in the data set with M. mycetomatis strain P1 and 0.41 µM in the data set on M. mycetomatis strain I1. The figures for the MIC (in data set [1]; against M. mycetomatis strain P1; in the data set with M. mycetomatis strain I1) were 1 µM, 1 µM and 0.5 µM, respectively.

In the data set on M. mycetomatis, `CC(C)(C)c1cc(C=C(C#N)C#N)cc(C(C)(C)C)c1O` [Tyrphostin 9] gave an activity at 2 µM of 1.5%. Also, the figures for the IC50 (in data set [1]; with M. mycetomatis strain P1; in the data set with M. mycetomatis strain I1) were 1.36 µM, 1.22 µM and 0.78 µM, respectively. Moreover, the MIC is 2 µM (≈ 0.565 µg/mL) in data set [1], 2 µM (≈ 0.565 µg/mL) against M. mycetomatis strain P1 and 1 µM (≈ 0.282 µg/mL) in the data set on M. mycetomatis strain I1. The “Toxicity in G. mellonella larvae at 20 µM” value in data set [2] (20 µL of 20 µM injected, 10 day observation, toxic if more than 20% of larvae died) is given as “toxicity was noted”. For the same compound, in data set [3] (20 µL of 10 µM at 4, 28 and 52 h post infection), the “Survival of M. mycetomatis-infected larvae versus PBS” value is recorded as “Decreased survival”.

As for `Clc1ccc(C(Cn2ccnc2)OCc2c(Cl)cccc2Cl)c(Cl)c1` (stereo not shown) [Isoconazole nitrate (Travogen), Isoconazole nitrate], the activity at 2 µM in the data set with M. mycetomatis is 1.2%. For the same compound, the IC50 was determined as 1.42 µM in data set [1], 0.06 µM in the data set on M. mycetomatis strain P1 and 0.36 µM in the data set with M. mycetomatis strain I1. The MIC in data set [1] turned out to be 2 µM; against M. mycetomatis strain P1, 0.5 µM; against M. mycetomatis strain I1 it was 0.5 µM.

In turn, `Clc1ccc(COC(Cn2ccnc2)c2ccc(Cl)cc2Cl)c(Cl)c1` (stereo not shown) [Miconazole nitrate] had an activity at 2 µM with M. mycetomatis of 1%. For the same compound, the figures for the MIC (in data set [1]; in the data set on M. mycetomatis strain P1; with M. mycetomatis strain I1) were 1 µM, 0.5 µM and 0.06 µM, respectively.

In the data set with M. mycetomatis, `C[C@@H](c1nc(-c2ccc(C#N)cc2)cs1)[C@](O)(Cn1cncn1)c1cc(F)ccc1F` [Isavuconazole] yielded an activity at 2 µM of 2.1%. Also, the figures for the IC50 (in data set [1]; in the data set with M. mycetomatis strain P1; with M. mycetomatis strain I1) were 0.43 µM, under 0.03 µM and 0.05 µM, respectively. The values for the MIC (in data set [1]; against M. mycetomatis strain P1; in the data set on M. mycetomatis strain I1) were 1 µM (≈ 0.437 µg/mL), 0.03 µM (≈ 0.0131 µg/mL) and 0.06 µM (≈ 0.0262 µg/mL), respectively.

For `OCCCNc1cc(-c2ccnc(Nc3cccc(Cl)c3)n2)ccn1` [cgp60474], the activity at 2 µM in the data set on M. mycetomatis is 7.4%. Also, the IC50 in data set [1] worked out at 1.55 µM; in the data set on M. mycetomatis strain P1, 0.64 µM; with M. mycetomatis strain I1, 0.81 µM. In addition, the MIC was determined as 2 µM (≈ 0.712 µg/mL) in data set [1], 1 µM (≈ 0.356 µg/mL) against M. mycetomatis strain P1 and 1 µM (≈ 0.356 µg/mL) against M. mycetomatis strain I1. For the same compound, the “Toxicity in G. mellonella larvae at 20 µM” value in data set [2] (in vivo) is “not toxic”. In data set [3] (20 µL of 20 µM at 4, 28 and 52 h post infection), the “Survival of M. mycetomatis-infected larvae versus PBS” value is given as “No prolonged survival”.

In the data set on M. mycetomatis, `Clc1ccc(C(Cn2ccnc2)OCc2ccsc2Cl)c(Cl)c1` (stereo not shown) [Tioconazole] returned an activity at 2 µM of 3.2%. Besides, the 50% inhibitory concentration (IC50) came to 1.24 µM in data set [1], 0.39 µM in the data set with M. mycetomatis strain P1 and 0.33 µM with M. mycetomatis strain I1. The MIC in data set [1] is 2 µM (≈ 0.775 µg/mL); in the data set on M. mycetomatis strain P1, 0.5 µM (≈ 0.194 µg/mL); with M. mycetomatis strain I1, 0.5 µM (≈ 0.194 µg/mL).
